In patent US6541511B1, “Methyl analogs of simvastatin as novel HMG-CoA reductase inhibitors” (Ranbaxy Laboratories Limited, priority 2001, dated 2003):

Key:
HMG-CoA reductase [1] = target: T1, HMG-CoA reductase (Homo sapiens, UniProt P04035); test: in vitro HMG-CoA reductase inhibitory activity; assay type: biochemical
T1 sequence (P04035 1-888): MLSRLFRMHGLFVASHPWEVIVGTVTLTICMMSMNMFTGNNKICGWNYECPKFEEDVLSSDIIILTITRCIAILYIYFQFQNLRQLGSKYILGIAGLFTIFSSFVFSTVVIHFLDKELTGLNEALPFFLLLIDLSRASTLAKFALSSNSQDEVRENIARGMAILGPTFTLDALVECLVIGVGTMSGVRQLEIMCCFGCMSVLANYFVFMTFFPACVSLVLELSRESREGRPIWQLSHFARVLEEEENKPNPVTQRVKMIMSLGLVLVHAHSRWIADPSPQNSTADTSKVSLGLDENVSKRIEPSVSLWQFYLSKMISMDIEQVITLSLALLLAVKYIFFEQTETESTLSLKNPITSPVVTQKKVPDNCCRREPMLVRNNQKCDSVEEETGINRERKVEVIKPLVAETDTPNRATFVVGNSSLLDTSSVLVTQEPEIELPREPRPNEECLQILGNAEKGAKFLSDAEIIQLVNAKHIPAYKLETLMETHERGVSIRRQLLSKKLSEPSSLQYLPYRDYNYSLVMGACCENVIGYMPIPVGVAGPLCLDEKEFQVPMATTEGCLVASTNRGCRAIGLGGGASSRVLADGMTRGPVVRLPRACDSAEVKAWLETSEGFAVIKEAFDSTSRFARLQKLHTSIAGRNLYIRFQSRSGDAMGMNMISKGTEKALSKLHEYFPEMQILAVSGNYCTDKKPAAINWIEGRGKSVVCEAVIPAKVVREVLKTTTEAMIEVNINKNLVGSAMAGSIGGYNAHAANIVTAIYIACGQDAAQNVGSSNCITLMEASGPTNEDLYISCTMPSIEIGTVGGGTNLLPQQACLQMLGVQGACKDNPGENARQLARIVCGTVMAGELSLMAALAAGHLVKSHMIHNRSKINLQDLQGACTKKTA
Procedure: The in vivo and in vitro biological activity of the methyl analog of simvastatin isomeric compounds of structural formulae VIIc and VIIa was carried out on a HMG-CoA reductase inhibitory model. The compounds were tested at three concentrations (10^−5, 10^−7 and 10^−9 M) for the in vitro activity.

[2] = system: (14C) cholesterol synthesis from (14C) acetate; test: in vivo inhibition of (14C) cholesterol prepared from 14C acetate in rats; details: for cholesterol lowering activity (in words): in vivo
Procedure: The in vivo experiments were conducted using radiolabelled (^14C) acetate which was administered to the rats converting it into (^14C) cholesterol. This synthesis was measured by quantitating (^14C) cholesterol inhibited by HMG-CoA reductase inhibitor.

HMG-CoA reductase [3] = target: T1, HMG-CoA reductase; details: cited from earlier work

SMILES	% HMG-CoA reductase inhibition activity (HMG-CoA reductase [1]; concentration 10^-5 M) [%]	% HMG-CoA reductase inhibition activity (HMG-CoA reductase [1]; concentration 10^-7 M) [%]	% HMG-CoA reductase inhibition activity (HMG-CoA reductase [1]; concentration 10^-9 M) [%]	HMG-CoA reductase inhibitory activity (in words) (HMG-CoA reductase [1]; tested at 10^-5, 10^-7 and 10^-9 M)	% inhibition of (14C) cholesterol prepared from 14C acetate ([2]; 1 mg/kg i.p.) [%]	% inhibition of (14C) cholesterol prepared from 14C acetate ([2]; 1 mg/kg orally) [%]	% inhibition of (14C) cholesterol prepared from 14C acetate ([2]; 5 mg/kg orally) [%]	cholesterol lowering activity (in words) [2]	potency relative to mevinolin (HMG-CoA reductase [3])
CCC(C)(C)C(=O)O[C@H]1C[C@@H](C)C=C2C=C[C@H](C)[C@H](CC[C@@H]3C[C@@H](O)[C@H](C)C(=O)O3)[C@H]21 [VIIc, 6(R)-[2-[8(S)-[[2,2-Dimethylbutanoyl]oxyl]-2(S),6(R)-dimethyl-1,2,6,7,8,8a(R)-hexahydro-1(S)-napthyl]ethyl]-3(S)-methyl,4(R)-hydroxy-3,4,5,6-tetrahydro-2H-pyran-2-one]	99	71	8	significant HMG-CoA reductase inhibitory activity	8	0	57	have cholesterol lowering activity	–
CCC(C)(C)C(=O)O[C@H]1C[C@@H](C)C=C2C=C[C@H](C)[C@H](CC[C@@H]3C[C@@H](O)CC(=O)O3)[C@H]21 [simvastatin]	–	–	–	–	–	–	–	–	twice as potent as mevinolin
CCC(C)(C)C(=O)O[C@H]1C[C@@H](C)C=C2C=C[C@H](C)[C@H](CC[C@@H]3C[C@@H](O)[C@@H](C)C(=O)O3)[C@H]21 [VIIa, 6(R)-[2-[8(S)-[[2,2-Dimethylbutanoyl]oxyl]-2(S),6(R)-dimethyl-1,2,6,7,8,8a(R)-hexahydro-1(S)-napthyl]ethyl]-3(R)-methyl,4(R)-hydroxy-3,4,5,6-tetrahydro-2H-pyran-2-one]	100	93	30	–	10	0	69	have cholesterol lowering activity	–
